Like-named read-outs stand apart in the source and are kept apart here.
Experiments:
healthy C57/BL6J mice = conditions: for time after release at which increase in BG is evident / time after release at which increase in HR is evident: 1 mg pill, 5%-95% Epinephrine-Lactose, subcutaneous, mice
Procedure: To test this, studies with epinephrine, a naturally occurring circulating neurotransmitter hormone produced by the adrenal medulla, were performed and used as emergency medication in the treatment of anaphylaxis, cardiac arrest, asthma, and hypotension. Epinephrine release targets adrenergic receptors is accompanied by increases in heart rate (HR).
In vivo epinephrine release involved studies on anesthetized adult, male, healthy C57/BL6J mice. Mice were implanted with emergency rescue devices containing epinephrine doses of 1.4 mg/kg via the surgical procedures described above and allowed to recover for a 3-day period. On day 3, mice were carefully anesthetized via the flow of 1% isoflurane, and hair around the dorsal neck region was removed via the application of a depilatory cream (e.g., Nair). A collar-mounted optical probe (e.g., a MouseOx, Starr Life Science, Oakmont, PA) was then used to track heart rate. Additional biomarkers measured by the probe included oxygen saturation (SpO2), pulse-width distension (a measure of blood flow) and breath rate. Animals were monitored until their heart rate reached steady values of 380-400 bpm. A primary transmitter antenna was then brought into close proximity for 2-5 minutes to induce wireless release. Anesthetized animals were then monitored via optical probe measurements for 30 minutes, followed by euthanasia and explantation to evaluate opening and drug dissolution.

[1] = In vivo IVIS fluorescence imaging of release from subcutaneously implanted device; design: species or system mice; conditions: for biodistribution (IVIS imaging of major organs): organs imaged 40 minutes after subcutaneous release
Procedure: Imaging studies with fluorescently labeled lyophilized insulin-dye conjugates (Ins-Cy7) validate burst release in vivo, over timescales of about 10 minutes. Devices (e.g., device 100) were implanted in subcutaneous sites, with release apertures 171 facing into muscle beds (the complete surgical implantation procedure is disclosed below).
An equivalent set of studies with glucagon conjugated with cy7 (GCG-cy7) reveal similar release profiles as illustrated in FIG. 5A with strong fluorescence visible within the first 20 minutes following release. […] As shown herein, dry-powder injection directly into subcutaneous sites may function as a mechanism to both maintain long-term drug stability and ensure rapid action following release.
Animals were anesthetized via isoflurane and placed in an in vivo imaging system (IVIS). Baseline fluorescent measurements tuned to emission peaks of cy7 (exposure time 3 seconds, 640 nm<wavelength<840 nm) established pre-release fluorescence profiles. A primary antenna placed in close proximity to the device for about 1 minute induced wireless drug release. Sequential imaging following release at intervals of about 5 minutes then allowed for imaging of fluorescence signals resulting from drug dissolution and diffusion. […]

[2] = cited from earlier work
[3] = HPLC drug dissolution testing of glucagon pills in PBS; assay type: physicochemical; conditions: 37° C., across a range of loading fractions
Text: Capabilities in closed-loop burst release enabled by wireless communication between commercially available biosensors and emergency rescue devices represent a feature of this technology. One example is the combination of glucagon release with CGM technology for fully closed-loop glucose-responsive hypoglycemic rescue during periods of sleep or hypoglycemia unawareness and in pediatric patients who are unable to self-administer glucagon. […] Benchtop testing in a physiological mimic glucose solution was also performed. […]
Several known concentrations of glucagon (x, unit μM) were tested with the HPLC and the corresponding absorbance peak areas (y, A.U.) were measured. […] This equation yields glucagon concentrations of testing solutions at different time points via measurements of absorbance peak areas. […]
HPLC was performed under the following conditions using an Agilent InfinityLab Poroshell 120 (EC-C18, 4.6 mm×100 mm, 2.7 μm particle size) at 25° C., using 0.1% formic acid in water (solvent A) and acetonitrile (solvent B) at 0.6 ml/min. […] Glucagon UV absorption was monitored at 280 nm with retention time (Rt)=19.2 min.

[4] = test system: blood glucose concentrations; conditions: administration for acute hypoglycemia; cited from earlier work
[5] = test system: C57/BL6 mice with chemically induced diabetes via Streptozotocin (STZ); test: Post-fasting glucagon release in diabetic mice (blood glucose); assay type: in vivo; conditions: glucagon release studies in diabetic mice
Procedure: In an initial set of experiments (results shown in FIG. 5C) mice were fasted to induce mild hypoglycemia baseline BG 113±1.9 mg dl^−1). Wireless release is triggered at time t=0 minutes by placing the awake, freely moving mice in a modified enclosure capable of providing wireless power at 13.56 MHz. Successive measurements then reveal a rapid rise in BG measurements relative to baselines, with a peak value ([…]) occurring at tmax=15 minutes following release. […] Following release, explantation confirmed complete opening and dissolution of the pills (FIG. 22).
0.5 μl volumes of blood were collected via tail-pricks with 25-27G and measured with a commercial handheld blood glucose meter (e.g., a Clarity, BG1000). The upper limit of measurements is 600 mg/dl on these systems and values above this were recorded as 600 mg/dl for analysis. Non-fasting values were recorded for 7-10 days following implantation, after which BG values were recorded following a 2.5 hour fast. Mice were weighed before and after fasting periods. Measurements in experimental groups (O2, Non O2 controls) were recorded in triplicate to account for any variability in readings and averaged.
(i) Post-fasting studies: These studies were performed […] after device implantation in STZ-induced diabetic BL6 mice. […] BG values recorded immediately following release served as t=0 minutes measurements. […]

[6] = 30 minutes after release, 1 mg pill 5%-95% Epinephrine-Lactose, n=3

Q: With `CNC[C@H](O)c1ccc(O)c(O)c1` [Epinephrine] as the molecule, how does the “time after release at which increase in BG is evident” value (healthy C57/BL6J mice) read?
A: ≤ 10 min

Q: What about the “time after release at which increase in HR is evident” value (healthy C57/BL6J mice) of the same molecule?
A: ≤ 10 min

Q: What about the “time after release at which increase in BG is evident” value (healthy C57/BL6J mice; listed as epinephrine) of the same molecule?
A: ≤ 5 min

Q: And the “time after release at which increase in HR is evident” value (healthy C57/BL6J mice; listed as epinephrine)?
A: ≤ 5 min

Q: What about the ΔBG (healthy C57/BL6J mice; [6]) of the same molecule?
A: 66 ± 23 mg/dL

Q: What about the ΔHR (healthy C57/BL6J mice; [6]) of the same molecule?
A: 140±33 bpm

Q: What about the “correlation of other biomarkers (heart rate, SpO2, pulse-width distension) with release” value (healthy C57/BL6J mice; pills at 0.3 mg/kg and 1.5 mg/kg versus sham implants) of the same molecule?
A: weak correlation

Q: What does the source list for “GCG-cy7: glucagon conjugated with cy7; 1-mg glucagon-lactose (4%-96% by weight) pill labeled with fluorescent dye”?
A: biodistribution (IVIS imaging of major organs) [1]: confinement to liver site; time after release at which strong fluorescence is visible ([1]; release 2 days after subcutaneous implantation): ≤ 20 min

Q: Which “fluorescence before wireless release” value ([1]; implanted sealed device, until release 7 days after implantation) does the source give for “Ins-Cy7: fluorescently labeled lyophilized insulin-dye conjugates; 1 mg Insulin-cy7-Lactose (4%-96% by weight) pills” here?
A: no detectable fluorescence

Q: And the “biodistribution (IVIS imaging of major organs)” value [1]?
A: confined to the liver

Q: And the “timescale of burst release in vivo” value ([1]; subcutaneous device, mice, IVIS)?
A: about 10 minutes

Q: And the “time after release at which fluorescence is detectable” value ([1]; subcutaneous site, release on day 7)?
A: ≤ 5 min

Q: What about the “increase in local fluorescence intensity (ROI)” value ([1]; within the first 15 minutes following release, n=3 mice) of the same molecule?
A: roughly tenfold

Q: Which stability in solution [2] does the source give for glucagon here?
A: < 1 days

Q: What about the “dissolution of dry powder drug (HPLC)” value [3] of the same molecule?
A: rapid dissolution

Q: And the “time to increase in blood glucose concentrations” value [4]?
A: < 10 min

Q: What about the “time to increase in blood glucose after release” value [5] of the same molecule?
A: < 10 min

Reference: patent publication US20240245856A1, “Electromechanical Devices for the Burst Release of Indefinitely Stable Dry Powder Drugs” (Massachusetts Institute of Technology, priority 2023, published 2024)
